Values of other authors, collected in patent US20080287519A1, “Amorphous eletriptan hydrobromide and process for preparing it and other forms of eletriptan hydrobromide” (priority 2007, published 2008).

Columns and labels:
5-HT6 receptor = 5-HT6 receptor (Homo sapiens, UniProt P50406)
5-HT5A receptor = 5-HT5A receptor (Homo sapiens, UniProt P47898)
[1] = test system: adrenergic beta receptors
5-HT2C receptor = biological target: T1, 5-HT2C receptor (Homo sapiens, UniProt P28335)
T1 sequence (P28335 33-458): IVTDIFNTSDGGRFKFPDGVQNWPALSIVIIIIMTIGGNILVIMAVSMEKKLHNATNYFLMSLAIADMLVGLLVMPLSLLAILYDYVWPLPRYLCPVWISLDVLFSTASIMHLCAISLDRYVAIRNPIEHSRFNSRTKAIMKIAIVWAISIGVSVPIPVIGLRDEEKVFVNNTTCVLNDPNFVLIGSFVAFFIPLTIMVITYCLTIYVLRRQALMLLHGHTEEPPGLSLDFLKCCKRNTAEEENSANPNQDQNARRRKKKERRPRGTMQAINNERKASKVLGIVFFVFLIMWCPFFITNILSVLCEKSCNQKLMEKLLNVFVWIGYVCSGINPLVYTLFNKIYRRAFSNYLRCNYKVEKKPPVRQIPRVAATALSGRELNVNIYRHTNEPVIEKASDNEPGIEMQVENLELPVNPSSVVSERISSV

5-HT1E receptor = 5-HT1E receptor (Homo sapiens, UniProt P28566)
Sequence of 5-HT1E receptor (P28566 whole entry): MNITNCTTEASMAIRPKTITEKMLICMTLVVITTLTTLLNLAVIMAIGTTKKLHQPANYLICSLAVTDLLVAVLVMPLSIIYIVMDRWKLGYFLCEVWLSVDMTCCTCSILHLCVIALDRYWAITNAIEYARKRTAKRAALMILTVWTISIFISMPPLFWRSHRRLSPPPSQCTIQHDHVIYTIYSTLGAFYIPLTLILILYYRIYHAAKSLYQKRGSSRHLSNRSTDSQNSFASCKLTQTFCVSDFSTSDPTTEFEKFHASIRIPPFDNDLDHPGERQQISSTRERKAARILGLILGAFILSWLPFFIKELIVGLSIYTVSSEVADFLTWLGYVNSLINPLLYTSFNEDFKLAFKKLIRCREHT

5-HT4 receptor = 5-HT4 receptor (Homo sapiens, UniProt Q13639)
Sequence of 5-HT4 receptor (Q13639 whole entry): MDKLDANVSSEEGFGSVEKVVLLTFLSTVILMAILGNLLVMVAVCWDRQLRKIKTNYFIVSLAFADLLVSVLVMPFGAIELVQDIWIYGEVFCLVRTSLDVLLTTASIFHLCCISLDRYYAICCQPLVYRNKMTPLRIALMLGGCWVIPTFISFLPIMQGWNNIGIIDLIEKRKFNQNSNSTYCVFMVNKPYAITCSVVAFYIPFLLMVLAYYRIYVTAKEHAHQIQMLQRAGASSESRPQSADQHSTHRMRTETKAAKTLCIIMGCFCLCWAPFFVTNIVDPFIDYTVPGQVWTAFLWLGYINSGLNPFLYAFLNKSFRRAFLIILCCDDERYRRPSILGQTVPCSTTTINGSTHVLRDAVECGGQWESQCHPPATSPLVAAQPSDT

5-HT7 receptor = 5-HT7 receptor (Homo sapiens, UniProt P34969)
Sequence of 5-HT7 receptor (P34969 whole entry): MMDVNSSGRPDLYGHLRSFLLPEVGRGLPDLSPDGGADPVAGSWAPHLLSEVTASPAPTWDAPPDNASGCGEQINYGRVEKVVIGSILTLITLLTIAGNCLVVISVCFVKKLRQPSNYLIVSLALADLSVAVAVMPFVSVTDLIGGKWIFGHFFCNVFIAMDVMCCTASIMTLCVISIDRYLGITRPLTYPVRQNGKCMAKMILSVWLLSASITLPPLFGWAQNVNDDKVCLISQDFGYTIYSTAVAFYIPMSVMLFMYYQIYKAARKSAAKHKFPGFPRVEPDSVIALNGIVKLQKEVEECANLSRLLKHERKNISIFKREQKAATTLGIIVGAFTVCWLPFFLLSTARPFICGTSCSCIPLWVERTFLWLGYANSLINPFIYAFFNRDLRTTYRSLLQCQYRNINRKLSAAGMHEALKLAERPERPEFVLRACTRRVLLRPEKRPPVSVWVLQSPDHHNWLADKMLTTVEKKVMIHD

5-HT1B receptor = 5-HT1B receptor (Homo sapiens, UniProt P28222)
Sequence of 5-HT1B receptor (P28222 whole entry): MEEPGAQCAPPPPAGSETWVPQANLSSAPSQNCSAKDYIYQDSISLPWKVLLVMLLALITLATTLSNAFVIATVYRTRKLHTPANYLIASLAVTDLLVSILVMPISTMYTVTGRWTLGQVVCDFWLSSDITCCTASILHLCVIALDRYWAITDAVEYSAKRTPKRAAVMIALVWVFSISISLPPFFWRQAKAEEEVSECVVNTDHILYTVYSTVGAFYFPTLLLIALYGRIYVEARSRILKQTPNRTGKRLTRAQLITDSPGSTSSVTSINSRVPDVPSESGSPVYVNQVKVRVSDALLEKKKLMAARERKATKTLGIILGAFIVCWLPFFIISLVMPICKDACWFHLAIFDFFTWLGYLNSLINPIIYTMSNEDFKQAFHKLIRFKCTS

[2] = test system: adrenergic alpha2 receptors
[3] = biological target: dopaminergic D1 receptors (Homo sapiens, UniProt P21728)
Sequence of dopaminergic D1 receptors (P21728 whole entry): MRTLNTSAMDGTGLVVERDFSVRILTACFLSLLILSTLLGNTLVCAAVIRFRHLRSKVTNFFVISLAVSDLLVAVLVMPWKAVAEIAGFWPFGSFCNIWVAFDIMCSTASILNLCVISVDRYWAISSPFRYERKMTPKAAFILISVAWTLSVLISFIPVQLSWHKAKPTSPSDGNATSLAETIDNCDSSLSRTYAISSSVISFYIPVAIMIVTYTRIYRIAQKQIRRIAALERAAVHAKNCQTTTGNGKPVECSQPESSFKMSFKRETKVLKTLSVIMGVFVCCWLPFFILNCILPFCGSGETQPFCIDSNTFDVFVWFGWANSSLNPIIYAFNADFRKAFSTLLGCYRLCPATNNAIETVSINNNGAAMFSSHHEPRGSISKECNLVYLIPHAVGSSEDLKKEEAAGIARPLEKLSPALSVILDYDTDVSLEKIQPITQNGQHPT

5-HT1F receptor = biological target: T2, 5-HT1F receptor (Homo sapiens, UniProt P30939)
T2 sequence (P30939 1-366): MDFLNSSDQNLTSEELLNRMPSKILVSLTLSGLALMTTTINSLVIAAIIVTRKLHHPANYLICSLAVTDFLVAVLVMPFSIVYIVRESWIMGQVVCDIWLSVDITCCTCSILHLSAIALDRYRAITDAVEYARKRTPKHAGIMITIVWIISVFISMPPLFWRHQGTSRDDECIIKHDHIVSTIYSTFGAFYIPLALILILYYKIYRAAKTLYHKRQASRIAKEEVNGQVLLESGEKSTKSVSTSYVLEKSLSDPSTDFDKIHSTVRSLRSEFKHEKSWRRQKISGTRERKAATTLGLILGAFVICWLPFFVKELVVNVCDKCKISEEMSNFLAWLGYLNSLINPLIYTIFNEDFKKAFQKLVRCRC

[4] = biological target: dopaminergic D2 receptors (Homo sapiens, UniProt P14416)
Sequence of dopaminergic D2 receptors (P14416 whole entry): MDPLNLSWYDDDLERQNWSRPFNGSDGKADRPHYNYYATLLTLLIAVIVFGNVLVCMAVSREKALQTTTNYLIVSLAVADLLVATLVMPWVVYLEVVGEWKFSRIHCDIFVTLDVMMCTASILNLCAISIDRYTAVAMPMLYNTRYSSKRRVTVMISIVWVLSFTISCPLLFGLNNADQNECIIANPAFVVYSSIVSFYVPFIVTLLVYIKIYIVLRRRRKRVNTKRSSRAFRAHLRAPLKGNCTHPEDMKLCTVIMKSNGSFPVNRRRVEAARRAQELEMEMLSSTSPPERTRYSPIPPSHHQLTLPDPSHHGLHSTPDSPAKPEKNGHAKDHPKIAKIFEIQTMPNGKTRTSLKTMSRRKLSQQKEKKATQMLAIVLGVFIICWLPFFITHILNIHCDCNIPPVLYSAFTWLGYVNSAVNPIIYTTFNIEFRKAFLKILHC

[5] = test system: adrenergic alpha1 receptors
5-HT1A receptor = biological target: T3, 5-HT1A receptor (Homo sapiens, UniProt P08908)
T3 sequence (P08908 1-422): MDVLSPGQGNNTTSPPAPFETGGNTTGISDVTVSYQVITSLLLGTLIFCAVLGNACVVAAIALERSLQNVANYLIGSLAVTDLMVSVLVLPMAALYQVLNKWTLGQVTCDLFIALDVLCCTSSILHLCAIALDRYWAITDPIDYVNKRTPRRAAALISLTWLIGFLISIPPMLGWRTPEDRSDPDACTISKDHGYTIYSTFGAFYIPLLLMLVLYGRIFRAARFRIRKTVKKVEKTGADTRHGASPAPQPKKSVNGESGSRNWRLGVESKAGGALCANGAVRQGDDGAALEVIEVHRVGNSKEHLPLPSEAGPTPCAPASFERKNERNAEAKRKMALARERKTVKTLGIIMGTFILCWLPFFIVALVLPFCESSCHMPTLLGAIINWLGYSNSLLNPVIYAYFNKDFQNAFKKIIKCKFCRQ

5-HT2A receptor = 5-HT2A receptor (Homo sapiens, UniProt P28223)
Sequence of 5-HT2A receptor (P28223 whole entry): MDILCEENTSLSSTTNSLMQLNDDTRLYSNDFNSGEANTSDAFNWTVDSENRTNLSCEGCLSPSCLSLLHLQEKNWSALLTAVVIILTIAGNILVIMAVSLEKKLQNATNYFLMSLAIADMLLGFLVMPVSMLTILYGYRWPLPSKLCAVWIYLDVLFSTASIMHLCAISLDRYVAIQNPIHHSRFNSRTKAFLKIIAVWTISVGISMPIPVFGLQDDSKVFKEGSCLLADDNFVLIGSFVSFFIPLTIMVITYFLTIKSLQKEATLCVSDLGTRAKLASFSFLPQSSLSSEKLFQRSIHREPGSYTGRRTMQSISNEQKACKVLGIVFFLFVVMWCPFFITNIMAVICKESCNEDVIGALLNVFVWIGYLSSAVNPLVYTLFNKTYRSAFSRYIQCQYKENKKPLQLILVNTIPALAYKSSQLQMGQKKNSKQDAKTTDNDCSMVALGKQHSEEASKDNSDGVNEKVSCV

5-HT2B receptor = 5-HT2B receptor (Homo sapiens, UniProt P41595)
Sequence of 5-HT2B receptor (P41595 whole entry): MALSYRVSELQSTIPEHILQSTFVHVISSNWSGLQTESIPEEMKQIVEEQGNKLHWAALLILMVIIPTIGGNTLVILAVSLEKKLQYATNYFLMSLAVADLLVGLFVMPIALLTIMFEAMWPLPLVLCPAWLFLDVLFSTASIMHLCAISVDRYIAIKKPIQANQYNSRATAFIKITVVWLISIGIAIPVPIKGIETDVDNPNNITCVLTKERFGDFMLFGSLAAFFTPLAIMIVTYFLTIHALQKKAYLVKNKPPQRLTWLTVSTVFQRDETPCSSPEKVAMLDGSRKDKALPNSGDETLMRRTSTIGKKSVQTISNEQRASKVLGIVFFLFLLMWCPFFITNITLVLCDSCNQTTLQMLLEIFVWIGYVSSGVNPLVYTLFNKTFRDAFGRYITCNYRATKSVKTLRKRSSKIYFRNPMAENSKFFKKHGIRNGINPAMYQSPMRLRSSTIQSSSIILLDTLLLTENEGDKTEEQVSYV

5-HT1D receptor = 5-HT1D receptor (Homo sapiens, UniProt P28221)
Sequence of 5-HT1D receptor (P28221 whole entry): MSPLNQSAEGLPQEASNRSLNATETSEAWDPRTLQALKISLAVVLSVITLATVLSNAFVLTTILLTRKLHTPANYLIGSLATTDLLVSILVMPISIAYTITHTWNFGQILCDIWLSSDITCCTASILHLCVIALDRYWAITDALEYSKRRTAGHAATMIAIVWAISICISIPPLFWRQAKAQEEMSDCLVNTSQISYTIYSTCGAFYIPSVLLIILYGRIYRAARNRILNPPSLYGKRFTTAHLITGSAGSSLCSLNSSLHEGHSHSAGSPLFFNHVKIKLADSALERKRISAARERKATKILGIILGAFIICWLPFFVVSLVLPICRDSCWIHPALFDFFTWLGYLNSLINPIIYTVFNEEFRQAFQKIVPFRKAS

Sequence of 5-HT5A receptor (P47898 whole entry): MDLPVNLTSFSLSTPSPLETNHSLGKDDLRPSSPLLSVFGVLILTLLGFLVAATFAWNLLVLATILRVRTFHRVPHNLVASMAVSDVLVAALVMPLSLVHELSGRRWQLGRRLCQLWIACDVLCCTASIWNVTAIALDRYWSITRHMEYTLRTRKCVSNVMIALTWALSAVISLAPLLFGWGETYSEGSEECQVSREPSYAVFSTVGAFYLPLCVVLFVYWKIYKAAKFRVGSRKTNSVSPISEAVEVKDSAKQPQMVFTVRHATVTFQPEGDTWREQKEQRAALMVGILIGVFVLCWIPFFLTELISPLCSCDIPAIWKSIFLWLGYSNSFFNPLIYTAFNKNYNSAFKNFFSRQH
Sequence of 5-HT6 receptor (P50406 whole entry): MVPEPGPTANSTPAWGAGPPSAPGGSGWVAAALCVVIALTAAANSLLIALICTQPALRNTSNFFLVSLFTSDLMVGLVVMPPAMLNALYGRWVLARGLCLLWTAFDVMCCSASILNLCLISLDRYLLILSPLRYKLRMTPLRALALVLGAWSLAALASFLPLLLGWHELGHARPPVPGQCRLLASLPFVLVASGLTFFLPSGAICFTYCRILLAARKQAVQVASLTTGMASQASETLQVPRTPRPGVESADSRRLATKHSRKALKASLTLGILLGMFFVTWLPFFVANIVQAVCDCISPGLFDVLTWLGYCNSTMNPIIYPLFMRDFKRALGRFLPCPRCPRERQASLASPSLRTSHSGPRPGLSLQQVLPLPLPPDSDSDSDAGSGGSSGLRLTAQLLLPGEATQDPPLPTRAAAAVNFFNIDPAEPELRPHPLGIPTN

For `CN1CCC[C@@H]1Cc1c[nH]c2ccc(CCS(=O)(=O)c3ccccc3)cc12` [Eletriptan, 3-(N-methyl-2(R)-pyrrolidinylmethyl)-5-(2-phenylsulphonylethyl)-1H-indole], the affinity (5-HT6 receptor) is given as “little or no affinity”, the affinity (5-HT5A receptor) is given as “little or no affinity” and the “affinity or pharmacological activity” value [1] is given as “no significant affinity or pharmacological activity”. For the same molecule, the affinity (5-HT2C receptor) was “little or no affinity”, the “affinity or pharmacological activity” value (muscarinic receptors) was “no significant affinity or pharmacological activity” and the affinity (5-HT1E receptor) was “modest affinity”. The affinity (5-HT4 receptor) was “little or no affinity”, the “affinity or pharmacological activity” value (opioid receptors) was “no significant affinity or pharmacological activity” and the affinity (5-HT7 receptor) was “modest affinity”. The affinity (5-HT1B receptor) was “high affinity”, the “affinity or pharmacological activity” value [2] was “no significant affinity or pharmacological activity” and the “affinity or pharmacological activity” value [3] was “no significant affinity or pharmacological activity”. The affinity (5-HT1F receptor) was “high affinity”, the “affinity or pharmacological activity” value [4] was “no significant affinity or pharmacological activity” and the “affinity or pharmacological activity” value [5] was “no significant affinity or pharmacological activity”. For the same molecule, the affinity (5-HT3 receptor) was “little or no affinity”, the affinity (5-HT1A receptor) was “modest affinity” and the affinity (5-HT2A receptor) was “little or no affinity”. For the same molecule, the affinity (5-HT2B receptor) was “modest affinity” and the affinity (5-HT1D receptor) was “high affinity”.
